Reference: patent US9676820B2, “Method for inhibiting proliferation of high LIX1L-expressing tumor cell, and tumor cell proliferation-inhibiting peptide” (National University Corporation Hamamatsu University School …, priority 2013, dated 2017)
Entries after “also recorded” stand apart in the source; their conditions may differ.

Tests used:
[1] = system: OCUM-1 strain; experiment: MTT assay, OCUM-1 strain; format: cell-based; conditions: MTT assay, 72 hours
Procedure: (§1) Specifically, first, cells plated in a 96-well microplate such that the density thereof became 5×10^3 cells/well were cultured for one night in a culture solution having the same composition as those in the reference examples. Thereafter, the culture solution was exchanged with 100 μL of a culture solution of which the concentration of peptides is 0 μM to 100 μM for culturing for 72 hours. After the culturing, an MTT-containing PBS solution was added to the culture solution, and the mixture was incubated for 4 hours. Then, formazan which was generated by putting 100 μL of isopropanol (containing 34 (v/v) % of hydrochloric acid) into each of the wells was dissolved. The absorbance of each of the wells of the microplate at 570 nm was measured using a microplate reader. As controls, culturing was performed in the same manner except that no peptide was added to the strains, an MTT assay was performed thereon, and the absorbance at 570 nm was measured (untreated).

[2] = system: K562 strain; experiment: MTT assay, K562 strain; format: cell-based
Procedure: as §1
(§2) Specifically, the cells were cultured for 72 hours similarly to Example 2 except that a peptide to be added to a cell strain was set to peptide 1, 3, or 4, or a control peptide, an MTT assay was performed thereon, and the absorbance at 570 nm was measured.
In the method for measuring the viable cell counts, cells were cultured for 3 days similarly to Example 1 except that a 25 μM (10 μM for an HL-60 strain, a K562 strain, and a U937 strain) culture solution containing a control peptide or a peptide 1 was used, and the viable cell counts were measured. As a comparison, culturing was performed similarly to the above using a culture solution containing no peptide, and the viable cell counts were measured (untreated).
In addition, in the method for performing an MTT assay, cells were cultured for 72 hours similarly to Example 2 except that a peptide to be added to a strain was set to a control peptide or a peptide 1 at 25 μM (10 μM for an HL-60 strain, a K562 strain, and a U937 strain), an MTT assay was performed thereon, and the absorbance at 570 nm was measured. As a comparison, culturing was performed similarly to the above using a culture solution containing no peptide, and the MTT assay was performed thereon (untreated).
(§3) Specifically, the cells were cultured for 72 hours similarly to Example 2 except that a peptide to be added to a cell was set to a peptide 1, 2, 5, or 6, MTT assays were performed thereon, and the absorbance at 570 nm was measured. As a comparison, culturing was performed similarly to the above using a culture solution containing no peptide, and the MTT assay was performed thereon (untreated).
as §3, with “that peptides” for “that a peptide”, “to” for “to a”, “cell strains were” for “cell was”, “to peptides 7 to 14,” for “to a peptide 1, 2, 5, or 6,”
Specifically, the cells were cultured for 72 hours similarly to Example 2 except that a peptide to be added to a cell strain was set to a peptide 15 or 16, an MTT assay was performed thereon, and the absorbance at 570 nm was measured. As a comparison, culturing was performed similarly to the above using a culture solution containing no peptide, and the MTT assay was performed thereon (untreated).

[3] = system: MKN45 cell strains; experiment: Cancer mouse model transplanted with MKN45 cell strain; format: in vivo; conditions: nude mice with MKN45 transplant
Procedure: Rearing of 10 nude male mice (BALB/cAJcl-nu/nu, purchased from CLEA Japan, Inc.) at the age of 7 weeks was started, and MKN45 cell strains separately cultured were transplanted into the mice by being subcutaneously injected thereinto on day 31. The day on which the transplantation was performed was set as day 0, the mice were divided into two groups (peptide 1-administered group and control peptide-administered group) of 5 mice on day 14 of the transplantation, 4 mice were selected among the 5 mice from each group, and the peptide 1 or the control peptide was administered. The remaining one mouse was set as a spare. In the peptide 1-administered group, 100 μL of a 30 μM peptide 1 solution (solution prepared by adding a methylcellulose solution to the solution after the peptide 1 was dissolved in PBS (−)) was subcutaneously injected into a tumor site (site into which the MKN45 cell strain was injected) 4 times every 3 days. In the control peptide-administered group, 100 μL of a 30 μM control peptide solution (solution prepared by adding a methylcellulose solution to the solution after the control peptide was dissolved in PBS (−)) was subcutaneously injected into a tumor site 4 times on the same days as those in the peptide 1-administered group.
The results in which the points of time (days) at which a peptide solution was administered to each mouse and the volume (mm^3) of a tumor site were temporally measured are shown in FIG. 21. For the volume of the tumor site, the width and the length of the tumor site determined from the appearance of the mouse were measured and calculated using the following formula. [Volume(mm^3) of Tumor Site]=([Width(mm) of Tumor Site]^2×[Length(mm) of Tumor Site])/2
The “width of tumor site” referred herein means a maximum width of a portion in which the skin has risen due to the tumor and the “length of tumor site” means a maximum length of a portion in which the skin has risen due to the tumor.

[4] = system: 293 FLG/LIX1L; experiment: Colony formation assay (agarose), 293 FLG/LIX1L cells (Example 9); format: cell-based; conditions: 293 FLG/LIX1L/PY136 cells, 14 days
Procedure: In the colony formation assay, the 293 FLG cells, the 293 FLG/LIX1L cells, and the 293 FLG/LIX1L/PY136 cells were respectively mixed in 10% FCS-containing DMEM culture media, to which 0.4% agarose was added, and the mixtures were gently placed on 0.6% agarose- and 10% FCS-containing DMEM culture media for culturing for 14 days. Thereafter, the influence of LIX1L and PY136 on cell proliferation was evaluated by counting the number of colonies in each well using an optical microscope (manufactured by Zeiss).

[5] = system: RPMI8226 strain; experiment: MTT assay, RPMI8226 strain; format: cell-based; conditions: peptide 0 μM to 100 μM, 72 hours
Procedure: as §1, §2

**Q.** Which results are given for `CC(C)[C@H](NC(=O)[C@H](Cc1ccc(O)cc1)NC(=O)[C@H](CS)NC(=O)[C@@H](NC(=O)[C@H](Cc1ccc(O)cc1)NC(=O)[C@@H]1CCCN1C(=O)[C@@H]1CCCN1C(=O)[C@H](CO)NC(=O)[C@H](CC(N)=O)NC(=O)[C@H](CO)NC(=O)[C@@H]1CCCN1C(=O)CCCCCNC(=O)[C@H](CCCNC(=N)N)NC(=O)[C@H](CCCNC(=N)N)NC(=O)[C@H](CCCNC(=N)N)NC(=O)[C@H](CCC(N)=O)NC(=O)[C@H](CCCNC(=N)N)NC(=O)[C@H](CCCNC(=N)N)NC(=O)[C@H](CCCCN)NC(=O)[C@H](CCCCN)NC(=O)[C@H](CCCNC(=N)N)NC(=O)CNC(=O)[C@@H](N)Cc1ccc(O)cc1)C(C)C)C(N)=O` [peptide 1, YGRKKRRQRRR-X-PSNSPPYVCYV-NH2]?
**A.** concentration at which a dominant effect of inhibiting the cell proliferation was recognized [1]: greater than or equal to 6.25 μM; cell proliferation (MTT assay, absorbance at 570 nm) ([2]; 72 hours, peptide concentrations up to 250 μM): inhibited; concentration at which a dominant effect of inhibiting the cell proliferation was recognized ([2]; MTT assay, 72 hours): greater than or equal to 6.25 μM; absorbance at 570 nm (MTT assay), influence on cell proliferation ([2]; peptide 0 μM to 100 μM, 72 hours): inhibited; cell proliferation (viable cell counts and MTT assay) ([2]; peptide 10 μM, 3 days / 72 hours): inhibited; body weight ([3]; 100 μL of 30 μM peptide solution 4 times, vs spare mice given nothing): no particularly significant change; volume (size) of the tumor site ([3]; 100 μL of 30 μM peptide solution subcutaneously into tumor site 4 times every 3 days from day 14): rarely changed; formation of colonies (colony formation assay) [4]: significantly inhibited; absorbance at 570 nm (MTT assay), influence on cell proliferation [5]: no effect of inhibiting the cell proliferation; also recorded: not inhibited
